Results as given in PMC9878307, “Derivatives of 2-aminobenzimidazole potentiate ASIC open state with slow kinetics of activation and desensitization” (Frontiers in Physiology, 2023).

Columns and labels:
Type in all cases: cell-based
[1] = target: T1, ASIC2a (Rattus norvegicus, UniProt Q62962); assay: whole-cell patch clamp, potentiation of acid-evoked peak current at pH […]
T1 construct: gene Asic2; rASIC2a homomer expressed in CHO cells
T1 sequence (Q62962 1-512): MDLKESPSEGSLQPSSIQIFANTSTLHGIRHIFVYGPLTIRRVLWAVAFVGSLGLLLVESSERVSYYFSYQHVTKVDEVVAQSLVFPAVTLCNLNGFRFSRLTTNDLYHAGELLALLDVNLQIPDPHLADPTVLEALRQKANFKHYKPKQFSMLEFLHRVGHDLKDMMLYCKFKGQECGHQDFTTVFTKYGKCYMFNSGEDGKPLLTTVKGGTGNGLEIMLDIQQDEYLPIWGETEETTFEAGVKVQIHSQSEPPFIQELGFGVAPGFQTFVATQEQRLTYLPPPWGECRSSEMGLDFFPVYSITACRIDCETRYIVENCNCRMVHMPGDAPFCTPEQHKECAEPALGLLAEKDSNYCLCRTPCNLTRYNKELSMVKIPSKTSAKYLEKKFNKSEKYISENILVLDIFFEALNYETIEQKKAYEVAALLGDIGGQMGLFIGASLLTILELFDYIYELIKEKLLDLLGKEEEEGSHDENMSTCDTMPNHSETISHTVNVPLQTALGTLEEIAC

[2] = target: T2, ASIC1a (Rattus norvegicus, UniProt P55926); assay: whole-cell patch clamp, slowed desensitization ([…] at […], […] at […]), amplitude unchanged
T2 construct: gene Asic1; rASIC1a homomer expressed in CHO cells
T2 sequence (P55926 1-526): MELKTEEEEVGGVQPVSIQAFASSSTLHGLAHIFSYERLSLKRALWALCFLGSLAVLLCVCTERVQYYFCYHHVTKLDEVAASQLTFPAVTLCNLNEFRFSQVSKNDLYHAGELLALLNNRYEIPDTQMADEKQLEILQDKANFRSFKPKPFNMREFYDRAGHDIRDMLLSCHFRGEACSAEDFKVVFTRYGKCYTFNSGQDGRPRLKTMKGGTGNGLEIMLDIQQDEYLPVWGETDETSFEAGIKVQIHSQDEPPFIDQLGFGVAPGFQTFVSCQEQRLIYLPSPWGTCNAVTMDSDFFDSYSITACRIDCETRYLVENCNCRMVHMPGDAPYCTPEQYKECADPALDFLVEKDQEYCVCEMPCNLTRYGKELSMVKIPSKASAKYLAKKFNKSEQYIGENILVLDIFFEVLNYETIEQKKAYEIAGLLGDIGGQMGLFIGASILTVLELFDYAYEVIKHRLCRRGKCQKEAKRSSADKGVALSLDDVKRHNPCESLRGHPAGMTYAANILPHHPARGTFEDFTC

[3] = target: T3, ASIC3 (Rattus norvegicus, UniProt O35240); assay: whole-cell patch clamp, […] inhibition of peak current at […]
T3 construct: rASIC3 expressed in CHO cells
T3 sequence (O35240 1-533): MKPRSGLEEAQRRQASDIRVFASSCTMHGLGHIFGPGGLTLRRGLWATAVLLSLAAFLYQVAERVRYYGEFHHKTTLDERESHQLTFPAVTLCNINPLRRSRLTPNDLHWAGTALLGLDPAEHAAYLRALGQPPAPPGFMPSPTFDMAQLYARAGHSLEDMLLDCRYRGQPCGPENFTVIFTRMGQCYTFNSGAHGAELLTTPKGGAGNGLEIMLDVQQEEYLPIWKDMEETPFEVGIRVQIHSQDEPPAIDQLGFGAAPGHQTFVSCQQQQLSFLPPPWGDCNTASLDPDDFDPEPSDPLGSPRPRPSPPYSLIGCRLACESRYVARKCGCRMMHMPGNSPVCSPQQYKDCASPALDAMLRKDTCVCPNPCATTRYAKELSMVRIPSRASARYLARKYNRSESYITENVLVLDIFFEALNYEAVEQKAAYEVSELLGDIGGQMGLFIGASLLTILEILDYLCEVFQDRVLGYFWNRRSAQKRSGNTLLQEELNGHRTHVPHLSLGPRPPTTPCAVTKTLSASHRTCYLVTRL

[4] = target: T1, ASIC2a; assay: whole-cell patch clamp, […] inhibition of peak current at […], pH […]; settings: pH 5

Row | Compound | EC50 [1] [µM] | fold slowing of desensitization [2] | inhibition at 70 µM [3] [%] | inhibition at 70 µM [4] [%]
1 | Nc1n(CC(=O)c2ccc(F)cc2)c2ccccc2[n+]1CCN1CCOCC1 [Ru-1355] | 7.52 ± 0.33 | 1.28 ± 0.15 | – | –
2 | N=C(N)c1ccc(/N=N/Nc2ccc(C(=N)N)cc2)cc1 [diminazene] | – | – | 74 ± 8 | 75 ± 12
